From ChEMBL document CHEMBL2363022, “Malaria Box Schistosomiasis Screening Data” (2013)

Columns and labels:
Assay type in all cases: functional
Design in all cases: scale not given here
Schistosoma mansoni [1] = system: Schistosoma mansoni
Schistosoma mansoni [2] = system: Schistosoma mansoni; remark: listed apart in the source
Schistosoma mansoni [3] = system: Schistosoma mansoni; remark: listed apart in the source

Compound | Toxicity (Schistosoma mansoni [1]) | Toxicity (Schistosoma mansoni [2]) | Toxicity (Schistosoma mansoni [3])
COc1cccc(Cn2c(Oc3ccccc3)nc3c2c(=O)n(C)c(=O)n3C)c1 | 0 | 0 | 0
CCOc1cc(Cl)c(C(C)NC(=O)c2ccccc2)cc1OCC (stereo unspecified) | 0 | 0 | 0
Cc1cc(Nc2cccc(F)c2)nc(NCc2ccccc2)n1 | 2 | 0 | 0
N=c1c2ccccc2nnn1-c1cccc(C(F)(F)F)c1 | 0 | 0 | 0
OC1=C2C(=Nc3ccccc3SC2c2ccc(Br)cc2)c2ccccc21 (stereo unspecified) | 1 | 0 | 0
CCN(CC)c1cc(C)c2cc(NC(=O)c3cccc(OC)c3)ccc2n1 | 2 | 0 | 0
Cc1ccc(Nc2nc(-c3ccccn3)cs2)cc1 | 0 | 0 | 0
FC(F)(F)c1cccc(CNC2CCN(CCc3ccccc3)CC2)c1 | 0 | 0 | 0
CCOc1cc(CNC(C)C(O)c2ccccc2)cc(Cl)c1OCC (stereo unspecified) | 0 | 0 | 1
FC(F)(F)c1cccc(Nc2nc(-c3ccccc3)nc3ncccc23)c1 | 0 | 0 | 0
CCC(=O)Nc1nnc(Cc2ccc(OC)c(OC)c2)s1 | 0 | 0 | 0
COc1cc(-c2nc(-c3ccccc3)c(-c3ccccc3)[nH]2)cc(OC)c1O | 0 | 0 | 0
COc1ccc(/C=C2/SC(=Nc3ccccc3)NC2=O)cc1 | 0 | 0 | 0
CCN(CC)CCNc1ccnc2cc3ccccc3cc12.O=P(O)(O)O | 2 | 3 | 3
COc1ccc2nc(C)cc(Nc3cccc(O)c3)c2c1.Cl | 2 | 0 | 0
Cc1cc(C)c2c(c1)OCN(Cc1ccccc1Cl)C2 | 0 | 0 | 2
COc1ccc(C2=C(c3ccc(OC)cc3)C3(c4ccccc4)C(=O)C2(c2ccccc2)C2C(=O)N(c4ccc(C)cc4)C(=O)C23)cc1 (stereo unspecified) | 0 | 0 | 0
O=[N+]([O-])c1ccc(C=NNc2nc3ccccc3[nH]2)cc1 | 0 | 1 | 0
CCOc1cc2c(cc1OCC)C(c1cc(OC)c(O)cc1Cl)NCC2 (stereo unspecified) | 0 | 0 | 0
COc1cccc(NC(=O)[C@H](C(C)C)n2c(=O)[nH]c3ccccc3c2=O)c1 | 0 | 0 | 0
COc1ccccc1NC1=C(N2CCCCC2)C(=O)c2ccccc2C1=O | 4 | 4 | 4
CSC1=NC(=Nc2c(C)cccc2C)C2(CCC(C(C)(C)C)CC2)N1c1ccc(Cl)cc1 (stereo unspecified) | 1 | 1 | 0
CCCCOc1ccc(C(=O)Nc2cc(C)on2)cc1 | 0 | 0 | 0

Compound | Toxicity (Schistosoma mansoni [1]) | Toxicity (Schistosoma mansoni [2]) | Toxicity (Schistosoma mansoni [3])
CCCc1c(C)nc2ccc(Br)cc2c1O | 0 | 0 | 0
COc1ccc(Br)cc1C1Nc2ccc3ccccc3c2C2=C1C(=O)CC(c1ccccc1)C2 (stereo unspecified) | 0 | 0 | 0
Cc1c(C)n(Cc2ccc(F)cc2)c2ccc(C(=O)NCc3ccco3)cc12 | 1 | 2 | 2
CCOc1ccccc1CN1CCc2nc3cc(C(C)(C)C)nn3c(O)c2C1 | 0 | 2 | 2
COc1ccc(C(=O)NC(c2ccccc2Cl)c2cc(Cl)c3cccnc3c2O)cc1 (stereo unspecified) | 0 | 2 | 4
CCOc1cccc(C(=O)Nc2ccc(-c3nc4ccccc4[nH]3)cc2)c1 | 0 | 0 | 2
COc1ccc(Nc2nc(N/N=C/c3ccc(O)cc3)nc(Nc3ccc([N+](=O)[O-])cc3)n2)cc1 | 0 | 0 | 0
CC(C)CCNCC(O)Cn1c2ccccc2c2ccccc21.Cl (stereo unspecified) | 2 | 4 | 4
CCOc1ccc(CN2CCN(CC(O)COc3ccc(OCC(O)CN4CCN(Cc5ccc(OCC)cc5)CC4)cc3)CC2)cc1 (stereo unspecified) | 3 | 4 | 4
COc1cc(SC)ccc1C(=O)N1CCCC(C)C1 (stereo unspecified) | 0 | 0 | 0
COc1ccc(C(O)(CCC(C)C)C(CN2CCOCC2)c2ccc(Cl)cc2)cc1.Cl (stereo unspecified) | 0 | 0 | 0
COc1ccc(C2C(C(=O)Nc3cccc(OC)c3)c3ccccc3C(=O)N2C2CCCCC2)cc1 (stereo unspecified) | 0 | 0 | 0
CC1CCCCN1CCCNC(=O)c1ccc2c(c1)sc1nc(-c3ccc(F)cc3)cn12 (stereo unspecified) | 2 | 0 | 1
CCc1ccc(CNCC(O)c2ccccc2)cc1.Cl (stereo unspecified) | 1 | 0 | 1
O=C(NC1CCN(Cc2ccccc2)CC1)c1cc(-c2ccncc2)nc2ccc(Cl)cc12 | 0 | 0 | 2
CCCC(c1nnnn1C1CCCCC1)N1CCN(C(=O)c2ccco2)CC1.Cl (stereo unspecified) | 0 | 0 | 0
Nc1ccc(-c2nc3cc(Oc4ccc(Oc5ccc6[nH]c(-c7ccc(N)cc7)nc6c5)cc4)ccc3[nH]2)cc1 | 0 | 0 | 2
COc1ccc(-c2cc(=O)oc3c4c(ccc23)OCN(Cc2ccc(F)cc2)C4)cc1 | 0 | 0 | 0
O=C(NCC(c1ccsc1)N1CCCCCC1)c1ccc(C(F)(F)F)cc1 (stereo unspecified) | 0 | 0 | 0
Cc1cc(NC(=O)C2c3ccccc3C(=O)N(CC(C)C)C2c2cccs2)no1 (stereo unspecified) | 0 | 0 | 0
O=C(CCc1ccccc1)c1ccccc1OCC(O)CN1CCCCC1 (stereo unspecified) | 1 | 0 | 4
CCOC(=O)C1=C(C)N=c2sc(=Cc3cc(Cl)ccc3O)c(=O)n2C1c1ccc(OC)cc1 (stereo unspecified) | 0 | 0 | 0
CCOC(=O)C1=C(c2ccccc2)N=c2sc(=Cc3cc(C)n(-c4ccc(F)cc4)c3C)c(=O)n2C1c1cccc(OC)c1OC (stereo unspecified) | 0 | 0 | 0

Compound | Toxicity (Schistosoma mansoni [1]) | Toxicity (Schistosoma mansoni [2]) | Toxicity (Schistosoma mansoni [3])
COc1ccccc1C(=O)ON=C(N)Cc1cccc2ccccc12 | 1 | 3 | 3
COc1ccc(C(=O)NC(c2ccc(Cl)cc2Cl)c2cc(Cl)c3cccnc3c2O)cc1 (stereo unspecified) | 0 | 0 | 0
CCN(Cc1ccccc1)C1CCN(Cc2cc(Br)ccc2O)CC1.O=C(O)C(=O)O | 0 | 0 | 0
Oc1c(C(Nc2ccccn2)c2cccc(Oc3ccccc3)c2)ccc2cccnc12 (stereo unspecified) | 0 | 4 | 4
CCOC(=O)c1cnc2ccc(CC)cc2c1O | 0 | 0 | 0
CCN1CCN(Cc2ccc(NC(=O)c3cc4ccc5cccnc5c4[nH]3)cc2)CC1 | 0 | 1 | 0
O=C(Nc1cccc(-c2nc3ccccc3[nH]2)c1)c1cccc(NC(=O)c2ccco2)c1 | 0 | 0 | 1
O=C1c2ccccc2C2=Nc3ccccc3SC(c3cccc(F)c3)C12 (stereo unspecified) | 1 | 1 | 1
CCCc1c(C)nc2ccccc2c1O | 0 | 0 | 0
CC(C)c1ccc(CNCC(O)c2ccccc2)cc1.Cl (stereo unspecified) | 0 | 0 | 0
COc1cc(C(=O)Nc2nc3c(cc4c5c(cccc53)CC4)s2)cc(OC)c1OC | 0 | 0 | 0
COc1ccc(-c2cc3c(SCC(=O)Nc4cc(C(F)(F)F)ccc4Cl)nccn3n2)cc1 | 0 | 0 | 0
COc1nc(Nc2ccc(C(C)C)cc2)nc(OC)n1 | 0 | 0 | 0
COc1ccc2sc(N(Cc3cccnc3)C(=O)c3ccc(C#N)cc3)nc2c1 | 0 | 0 | 0
COc1cc(-c2nc(-c3ccc(Sc4ccccc4)cc3)c(-c3ccccc3)[nH]2)cc(OC)c1O | 0 | 0 | 0
C=CCc1c(C)nc2ccccc2c1O | 0 | 0 | 0
O=c1cc(NC2CCN(CCCc3ccccc3)CC2)c2cc(Cl)ccc2o1 | 2 | 1 | 2
CCOc1c(Br)cc(C2C(C(=O)OC)=CN(C)C=C2C(=O)OC)cc1OC | 0 | 0 | 0
CC(C)(C)c1ccc(C2CC3=Nc4ccccc4N(C(=O)c4ccccc4Cl)C(c4ccc(F)cc4)C3=C(O)C2)cc1 (stereo unspecified) | 1 | 1 | 4
CCOC(=O)c1c(NC(=O)c2ccccc2)sc2c(O)c(CN(CC)CC)ccc12 | 0 | 0 | 0
Cc1ccc2nc(C)cc(Nc3cccc(C(F)(F)F)c3)c2c1.Cl | 2 | 2 | 3
